This is an account of results in patent US10738057B2, “Tertiary alcohols as PI3K-γ inhibitors” (Incyte Corporation, priority 2017, dated 2020).

Counter-ions that a name gives are not always drawn.

Experiment [1] addresses PI3Kγ (p110γ) Recombinant Human Protein (Homo sapiens (Human), UniProt P48736). Description: PI3K-γ scintillation proximity assay. Type of experiment: biochemical. As to conditions: 20 μM PIP2, 2 μM ATP, 13 nM PI3Kγ, 120 min, room temperature. From the text: Example B. PI3K-γ Scintillation Proximity Assay
[γ-^33P]ATP (10 mCi/mL) and Wheat Germ Agglutinin (WGA) YSi SPA Scintillation Beads was purchased from PerkinElmer (Waltham, Mass.). Lipid kinase substrate, D-myo-Phosphatidylinositol 4,5-bisphosphate (PtdIns(4,5)P2)D (+)-sn-1,2-di-O-octanoylglyceryl, 3-O-phospho linked (PIP2), CAS 204858-53-7, was purchased from Echelon Biosciences (Salt Lake City, Utah). PI3Kγ (p110γ) Recombinant Human Protein was purchased from Life technology (Grand Island, N.Y.). ATP, MgCl2, DTT, EDTA, MOPS and CHAPS were purchased from SigmaAldrich (St. Louis, Mo.).
(§1) The kinase reaction was conducted in polystyrene 384-well Greiner Bio-one white plate from Thermo Fisher Scientific in a final volume of 25 μL. Inhibitors were first diluted serially in DMSO and added to the plate wells before the addition of other reaction components. The final concentration of DMSO in the assay was 2%. The PI3Kγ assay was carried out at room temperature in 20 mM MOPS, pH 6.7, 10 mM MgCl2, 5 mM DTT and CHAPS 0.03%. Reactions were initiated by the addition of ATP, the final reaction mixture consisted of 20 μM PIP2, 2 μM ATP, 0.5 μCi [γ-^33P] ATP, 13 nM PI3Kγ. Reactions were incubated for 120 min and terminated by the addition of 40 μL SPA beads suspended in quench buffer: 163 mM potassium phosphate pH 7.8, 20% glycerol, 25 mM EDTA. The final concentration of SPA beads is 1.0 mg/mL. After the plate sealing, plates were shaken overnight at room temperature and centrifuged at 1500 rpm for 10 min, the radioactivity of the product was determined by scintillation counting on Topcount (Perkin-Elmer). IC50 determination was performed by fitting the curve of percent of the solvent control activity versus the log of the inhibitor concentration using the GraphPad Prism 6.0 software.

For experiment [2], the target named is PI3Kδ (p110δ/p85α) Recombinant Human Protein (Homo sapiens (Human), UniProt O00329). Description: PI3Kδ scintillation proximity assay. Type of experiment: biochemical. The settings on record: 20 μM PIP2, 2 μM ATP, 3.4 nM PI3Kδ, 120 min, room temperature; read-out: PI3Kδ IC50. On the procedure:
PI3Kδ Scintillation Proximity Assay
[γ-^33P]ATP (10 mCi/mL) and Wheat Germ Agglutinin (WGA) YSi SPA Scintillation Beads was purchased from PerkinElmer (Waltham, Mass.). […] PI3Kδ (p110δ/p85α) Recombinant Human Protein was purchased from Eurofins (St Charles, Mo.). ATP, MgCl2, DTT, EDTA, MOPS and CHAPS were purchased from SigmaAldrich (St. Louis, Mo.).
as §1, with “PI3Kδ” for “PI3Kγ”, “ATP, 13 nM PI3Kγ. Reactions were incubated for 120 min and terminated by the addition of 40 μL SPA beads suspended in quench buffer: 163 mM potassium phosphate pH 7.8, 20% glycerol, 25 mM EDTA.” left out, “(PerkinElmer).” for “(Perkin-Elmer).”

Chain of PI3Kδ (p110δ/p85α) Recombinant Human Protein (O00329 whole entry): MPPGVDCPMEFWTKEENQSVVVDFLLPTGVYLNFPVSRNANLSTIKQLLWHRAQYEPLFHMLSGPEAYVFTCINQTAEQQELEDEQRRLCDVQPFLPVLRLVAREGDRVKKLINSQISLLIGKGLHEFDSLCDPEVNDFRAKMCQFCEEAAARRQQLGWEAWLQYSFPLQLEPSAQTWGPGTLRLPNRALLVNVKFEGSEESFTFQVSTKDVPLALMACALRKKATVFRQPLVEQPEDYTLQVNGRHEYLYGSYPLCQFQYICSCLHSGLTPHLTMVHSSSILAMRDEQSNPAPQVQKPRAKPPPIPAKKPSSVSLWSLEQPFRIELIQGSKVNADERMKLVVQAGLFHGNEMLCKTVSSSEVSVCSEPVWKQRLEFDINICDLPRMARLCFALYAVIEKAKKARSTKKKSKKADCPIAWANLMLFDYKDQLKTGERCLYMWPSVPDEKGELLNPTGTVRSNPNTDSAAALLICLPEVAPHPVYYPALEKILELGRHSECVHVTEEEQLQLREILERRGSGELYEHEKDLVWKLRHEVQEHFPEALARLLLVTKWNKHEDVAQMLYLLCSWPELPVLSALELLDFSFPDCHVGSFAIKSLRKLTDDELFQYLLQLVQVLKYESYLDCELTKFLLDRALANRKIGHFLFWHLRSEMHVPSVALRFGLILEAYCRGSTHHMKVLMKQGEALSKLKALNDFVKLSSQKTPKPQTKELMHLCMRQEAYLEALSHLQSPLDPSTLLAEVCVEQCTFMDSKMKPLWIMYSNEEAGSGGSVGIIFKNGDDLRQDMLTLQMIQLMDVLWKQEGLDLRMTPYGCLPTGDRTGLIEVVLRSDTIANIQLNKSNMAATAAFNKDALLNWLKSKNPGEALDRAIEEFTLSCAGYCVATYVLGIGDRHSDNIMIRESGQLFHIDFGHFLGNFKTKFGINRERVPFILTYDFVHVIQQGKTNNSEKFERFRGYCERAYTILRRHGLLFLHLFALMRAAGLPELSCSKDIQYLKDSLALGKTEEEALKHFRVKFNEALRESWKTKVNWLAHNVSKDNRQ
Chain of PI3Kδ (p110δ/p85α) Recombinant Human Protein (P27986 whole entry partner): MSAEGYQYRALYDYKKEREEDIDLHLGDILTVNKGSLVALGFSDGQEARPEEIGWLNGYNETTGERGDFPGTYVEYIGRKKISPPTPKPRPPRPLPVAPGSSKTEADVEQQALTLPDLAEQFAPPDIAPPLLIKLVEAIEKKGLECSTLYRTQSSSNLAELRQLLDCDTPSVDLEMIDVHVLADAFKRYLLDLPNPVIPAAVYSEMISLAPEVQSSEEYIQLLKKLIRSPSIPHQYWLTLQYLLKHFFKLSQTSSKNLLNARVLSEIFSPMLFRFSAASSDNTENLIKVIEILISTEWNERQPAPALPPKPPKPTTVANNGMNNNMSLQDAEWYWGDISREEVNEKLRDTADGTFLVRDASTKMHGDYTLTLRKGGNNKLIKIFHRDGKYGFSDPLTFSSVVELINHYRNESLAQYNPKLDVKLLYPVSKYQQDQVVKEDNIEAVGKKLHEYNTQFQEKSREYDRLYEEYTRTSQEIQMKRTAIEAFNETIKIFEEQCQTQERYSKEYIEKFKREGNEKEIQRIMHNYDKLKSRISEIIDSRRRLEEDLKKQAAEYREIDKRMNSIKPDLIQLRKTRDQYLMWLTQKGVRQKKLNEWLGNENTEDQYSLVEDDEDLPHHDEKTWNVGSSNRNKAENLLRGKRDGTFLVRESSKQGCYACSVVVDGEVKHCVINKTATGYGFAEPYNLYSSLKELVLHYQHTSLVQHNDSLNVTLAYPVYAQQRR
Chain of PI3Kγ (p110γ) Recombinant Human Protein (P48736 whole entry): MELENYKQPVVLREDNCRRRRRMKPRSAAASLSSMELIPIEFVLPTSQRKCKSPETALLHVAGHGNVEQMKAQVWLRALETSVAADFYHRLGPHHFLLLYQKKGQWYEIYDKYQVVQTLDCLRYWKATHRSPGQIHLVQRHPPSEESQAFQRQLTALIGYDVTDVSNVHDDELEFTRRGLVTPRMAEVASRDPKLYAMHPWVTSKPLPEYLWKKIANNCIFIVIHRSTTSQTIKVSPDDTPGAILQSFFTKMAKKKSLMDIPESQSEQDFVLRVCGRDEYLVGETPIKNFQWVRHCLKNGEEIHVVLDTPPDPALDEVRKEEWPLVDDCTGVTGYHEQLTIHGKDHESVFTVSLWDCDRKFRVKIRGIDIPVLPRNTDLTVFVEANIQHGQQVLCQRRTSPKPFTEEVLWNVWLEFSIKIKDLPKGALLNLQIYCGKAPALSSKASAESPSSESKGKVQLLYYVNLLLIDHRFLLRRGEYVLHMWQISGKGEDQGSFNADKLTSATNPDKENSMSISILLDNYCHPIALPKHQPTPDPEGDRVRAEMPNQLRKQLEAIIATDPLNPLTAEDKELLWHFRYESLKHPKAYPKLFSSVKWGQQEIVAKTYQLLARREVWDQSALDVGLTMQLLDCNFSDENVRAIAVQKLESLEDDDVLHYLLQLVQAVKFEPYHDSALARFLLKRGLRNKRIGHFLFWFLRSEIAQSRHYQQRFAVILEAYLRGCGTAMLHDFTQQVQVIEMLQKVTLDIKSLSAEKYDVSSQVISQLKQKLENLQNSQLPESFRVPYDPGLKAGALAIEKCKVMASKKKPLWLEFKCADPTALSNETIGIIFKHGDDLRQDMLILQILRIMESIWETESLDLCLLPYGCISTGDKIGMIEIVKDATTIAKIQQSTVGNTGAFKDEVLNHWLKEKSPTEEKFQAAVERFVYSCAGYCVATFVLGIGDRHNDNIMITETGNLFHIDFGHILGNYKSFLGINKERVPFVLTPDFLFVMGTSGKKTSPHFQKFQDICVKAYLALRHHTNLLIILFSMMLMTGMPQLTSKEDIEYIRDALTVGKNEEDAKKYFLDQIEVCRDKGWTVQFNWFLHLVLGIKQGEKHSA

Turning to `Cc1ccc(C(C)(O)C(F)(F)F)cc1-c1cnc2c(N)nc(CC(=O)N3CCOCC3)cn12` (stereo not drawn) [Example 173, 2-(8-amino-3-(2-methyl-5-(1,1,1-trifluoro-2-hydroxypropan-2-yl)phenyl)imidazo[1,2-a]pyrazin-6-yl)-1-morpholinoethanone trifluoroacetate salt], the values for the IC50 in experiment [1] and in experiment [2] were 100 to 500 nM and 500 to 2000 nM, respectively.
Consider `CC(=O)NCC(O)(c1ccc(C)c(-c2cnc3c(N)nc(C(F)(F)F)cn23)c1)C(F)(F)F` (stereo not drawn) [Example 211, N-(2-(3-(8-amino-6-(trifluoromethyl)imidazo[1,2-a]pyrazin-3-yl)-4-methylphenyl)-3,3,3-trifluoro-2-hydroxypropyl)acetamide trifluoroacetate], for which the concentration for half-maximal inhibition (IC50) in experiment [1] was less than 100 nM; in experiment [2], 100 to 500 nM.
Turning to `Cc1ccc(C(O)(CNC(=O)c2ccccc2)C(F)(F)F)cc1-c1cnc2c(N)nc(C(F)(F)F)cn12` (stereo not drawn) [Example 212, N-(2-(3-(8-amino-6-(trifluoromethyl)imidazo[1,2-a]pyrazin-3-yl)-4-methylphenyl)-3,3,3-trifluoro-2-hydroxypropyl)benzamide trifluoroacetate salt], the 50% inhibitory concentration (IC50) is less than 100 nM in experiment [1] and 100 to 500 nM in experiment [2].
In the case of `CCNC(=O)c1cn2c(-c3cc(C(O)(CNC(C)=O)C(F)(F)F)ccc3C)cnc2c(N)n1` (stereo not drawn) [Example 221, 3-(5-(3-acetamido-1,1,1-trifluoro-2-hydroxypropan-2-yl)-2-methylphenyl)-8-amino-N-ethylimidazo[1,2-a]pyrazine-6-carboxamide trifluoroacetate], the IC50 in experiment [1] was less than 100 nM; in experiment [2] it was 100 to 500 nM.
For `Cc1ccc(C(C)(O)C(F)(F)F)cc1-c1cnc2c(N)nc(C(=O)NC34CCN(CC3)C4)cn12` (stereo not drawn) [Example 277, 8-Amino-N-(1-azabicyclo[2.2.1]heptan-4-yl)-3-(2-methyl-5-(1,1,1-trifluoro-2-hydroxypropan-2-yl)phenyl)imidazo[1,2-a]pyrazine-6-carboxamide trifluoroacetate salt], in that order: 100 to 500 nM and 100 to 500 nM.
With `Cc1ccc(C(C)(O)C(F)(F)F)cc1-c1cnc2c(N)nc(C(=O)NC34COC(CO)(C3)C4)cn12` (stereo not drawn) [Example 279, 8-Amino-N-(1-(hydroxymethyl)-2-oxabicyclo[2.1.1]hexan-4-yl)-3-(2-methyl-5-(1,1,1-trifluoro-2-hydroxypropan-2-yl)phenyl)imidazo[1,2-a]pyrazine-6-carboxamide trifluoroacetate salt], the concentration for half-maximal inhibition (IC50) in experiment [1] is less than 100 nM; in experiment [2], 100 to 500 nM.
